Results published in ChEMBL document CHEMBL1201862, “PubChem BioAssay data set” (2004).
Activity calls are given as the source filed them.

Legend:
[1] = Luminescence Cell-Based Dose Response to Identify Activators of 5'UTR Stem-Loop Driven Prion Protein mRNA Translation in H4-C Neuroglioblastoma Cells. [Related pubchem assays: 1829 (Project Summary), 1814 (Primary HTS)]; format: functional
[2] = Luminescence Cell-Based Dose Response HTS to Identify Activators of Luciferase Translation or Activity in H4 […] Cells. [Related pubchem assays: 1829 (Project Summary), 1814 (Primary HTS)]; format: functional
H4 = assay: Luminescence Cell-Based Dose Response HTS to Identify Activators of 5'UTR Stem-Loop Driven Prion Protein mRNA Translation in H4 Neuroglioblastoma Cells. [Related pubchem assays: 1829 (Project Summary), 1814 (Primary HTS)]; format: functional; conditions: Homo sapiens
[3] = Luminescence Cell-Based Dose Response to Identify Activators of Luciferase Translation or Activity in H4-C Neuroglioblastoma Cells. [Related pubchem assays: 1829 (Project Summary), 1814 (Primary HTS)]; format: functional
[4] = Luminescence Cell-Based Dose Confirmation to Identify Activators of 5'UTR Stem-Loop Driven Alpha-Synuclein mRNA Translation in H4 Neuroglioblastoma Cells. [Related pubchem assays: 1829 (Project Summary), 1814 (Primary HTS)]; format: functional
[5] = target: T1, Histone-lysine N-methyltransferase NSD2 (Homo sapiens, UniProt O96028); format: biochemical
T1 sequence (O96028 whole entry): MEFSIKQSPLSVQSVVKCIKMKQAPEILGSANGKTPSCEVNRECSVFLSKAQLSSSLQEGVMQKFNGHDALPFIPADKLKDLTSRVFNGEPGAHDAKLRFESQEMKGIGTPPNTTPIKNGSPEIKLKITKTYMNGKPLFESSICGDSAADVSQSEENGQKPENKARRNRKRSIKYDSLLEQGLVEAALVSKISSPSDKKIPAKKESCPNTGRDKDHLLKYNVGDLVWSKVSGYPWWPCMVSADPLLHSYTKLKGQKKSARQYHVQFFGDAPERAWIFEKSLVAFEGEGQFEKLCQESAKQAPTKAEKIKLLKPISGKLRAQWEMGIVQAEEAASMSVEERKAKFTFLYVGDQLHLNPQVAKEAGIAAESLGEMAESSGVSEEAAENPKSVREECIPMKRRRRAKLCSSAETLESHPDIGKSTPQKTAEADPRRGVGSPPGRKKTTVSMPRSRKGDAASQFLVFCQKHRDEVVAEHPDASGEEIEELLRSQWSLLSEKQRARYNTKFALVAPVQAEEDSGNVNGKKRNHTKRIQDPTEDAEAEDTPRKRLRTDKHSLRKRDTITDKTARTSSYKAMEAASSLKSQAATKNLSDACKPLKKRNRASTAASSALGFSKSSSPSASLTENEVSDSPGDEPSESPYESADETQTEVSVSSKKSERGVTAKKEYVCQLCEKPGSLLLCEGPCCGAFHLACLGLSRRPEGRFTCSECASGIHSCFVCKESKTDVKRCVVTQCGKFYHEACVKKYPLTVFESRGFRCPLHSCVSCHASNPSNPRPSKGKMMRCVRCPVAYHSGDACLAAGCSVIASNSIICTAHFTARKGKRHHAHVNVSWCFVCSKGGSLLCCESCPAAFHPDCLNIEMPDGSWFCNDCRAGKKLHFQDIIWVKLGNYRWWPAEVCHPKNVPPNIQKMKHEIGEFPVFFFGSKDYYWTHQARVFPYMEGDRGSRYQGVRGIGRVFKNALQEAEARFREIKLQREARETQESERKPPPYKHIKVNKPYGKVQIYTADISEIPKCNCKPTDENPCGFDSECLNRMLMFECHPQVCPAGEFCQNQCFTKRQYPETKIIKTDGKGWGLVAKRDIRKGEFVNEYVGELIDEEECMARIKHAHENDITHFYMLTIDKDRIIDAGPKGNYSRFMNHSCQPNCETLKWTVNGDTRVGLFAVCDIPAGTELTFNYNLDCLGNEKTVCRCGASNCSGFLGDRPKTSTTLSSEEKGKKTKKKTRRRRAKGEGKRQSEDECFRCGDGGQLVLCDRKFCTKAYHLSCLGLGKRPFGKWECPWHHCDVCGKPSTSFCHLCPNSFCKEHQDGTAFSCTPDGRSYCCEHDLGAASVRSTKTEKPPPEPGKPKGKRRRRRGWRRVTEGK

[6] = Shn3 3'UTR reporter inhibitors, dose response, cell-based, Clone20 osteoblasts, firefly luciferase, cherry-picked (AID 624132); format: functional;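 further: firefly luciferase luminescence from reporter carrying the Shn3 3'UTR in osteoblasts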
[7] = HepG2 cell cytotoxicity, dose response, cytotoxicity control for Shn3 inhibitor project, CellTiter-Glo, cherry-picked (AID 624134); format: functional, cell-based
[8] = control 3'UTR Renilla luciferase suppression, dose response, counter-screen for Shn3 inhibitor project, cell-based, Clone20-Shn3RL, cherry-picked (AID 624133); format: functional
Fatty acid synthase [9] = target: T2, Fatty acid synthase (Homo sapiens, UniProt P49327); assay: FAS thioesterase domain inhibitors, dose response, biochemical, endpoint fluorescence intensity, uHTS hits (AID 624327); format: functional;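 further: fluorescence from hydrolysis of an O-methyl fluorescein acyl ester substrate by the enzyme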
Fatty acid synthase [10] = target: T2, Fatty acid synthase; assay: FAS thioesterase domain inhibitors, dose response, biochemical, kinetic fluorescence intensity (AID 624326); format: functional;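 further: rate of fluorescence rise from hydrolysis of a fluorogenic O-methyl fluorescein ester substrate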
[11] = target: 26S proteasome non-ATPase regulatory subunit 14 (Homo sapiens, UniProt O00487); assay: inhibition of proteasome subunit RPN11 – biochemical, fluorescence polarization, uHTS hits, confirmation (AID 602368); format: functional
[12] = target: 72 kDa type IV collagenase (Homo sapiens, UniProt P08253); assay: Dose Response validation of uHTS RPN11 inhibitor hits using a MMP-2 Fluorescence assay.; format: functional
Prothrombin = Prothrombin (Bos taurus, UniProt P00735); assay: thrombin inhibition, dose response, biochemical, fluorescence polarization, uHTS hits (AID 602369); format: functional
[13] = target: T3, Low molecular weight phosphotyrosine protein phosphatase (Homo sapiens, UniProt P24666); format: functional; conditions: read-out: IC50_Mean;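 further: Dose-response confirmation assay measuring inhibition of LMPTP enzyme activity by fluorescence intensity read-out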
T3 sequence (P24666 whole entry): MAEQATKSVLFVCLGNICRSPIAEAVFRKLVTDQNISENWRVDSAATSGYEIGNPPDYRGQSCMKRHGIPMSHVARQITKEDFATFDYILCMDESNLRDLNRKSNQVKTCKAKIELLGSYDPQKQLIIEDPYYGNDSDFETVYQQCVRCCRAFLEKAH

Paired box protein Pax-8 = Paired box protein Pax-8 (Homo sapiens, UniProt Q06710); assay: inhibitors of PAX8-driven TPO luciferase reporter, dose response, RMG-I cells, cherry-pick (AID 687027); format: functional, cell-based;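 further: luciferase reporter driven by Pax8 target thyroperoxidase promoter measured by SteadyGlo luminescence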
[14] = NIH:OVCAR-3 ovarian cancer cell cytotoxicity, dose response, PAX8 inhibitor project, plate reader, dry powder samples (AID 743044); format: functional, cell-based
[15] = IGROV1 ovarian cancer cell cytotoxicity, dose response, PAX8 inhibitor project, plate reader, dry powder samples (AID 743043); format: functional, cell-based; conditions: IGROV-1
[16] = cytotoxicity in OVCAR8 ovarian cancer cells, dose response, PAX8 project, cell-based, plate reader, dry powder samples (AID 743197); format: functional; conditions: OVCAR-8
[17] = target: Luciferin 4-monooxygenase (Photinus pyralis, UniProt P08659); assay: firefly luciferase enzyme inhibitors, dose response, biochemical, luminescence (AID 1891)
[18] = Luminescence Cell-Based Dose Confirmation HTS to Identify Inhibitors of Platelet Dense Granule Release. [Related pubchem assays: 1663 (Primary HTS), 1678 (Summary of Project)]; format: functional
HEK293 = assay: inhibitors of LMP1-driven NF-kB reporter, dose response, cell-based, HEK293, luciferase, cherry-pick (AID 588343); format: functional; conditions: Homo sapiens
[19] = growth suppression of PTEN-null colon cells, dose response, cell-based, HCT116 PTEN knockout (AID 1047); format: functional;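 further: HCT116 colon tumor cells with PTEN knocked out; cells exposed to compound for 60 hours before readout; potency for loss of cell viability measured by luminescence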
[20] = growth suppression of beta-catenin-knockout colon cells, dose response, cell-based, HCT116, human colon tumor (AID 1045); format: functional;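 further: HCT116 colon tumor cells with beta catenin knocked out; cells exposed to compound for 60 hours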
INS1 = assay: beta cell apoptosis inhibitors, cytokine rescue, dose response, luminescence, retest (AID 449756); format: functional, cell-based; conditions: Rattus norvegicus;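 further: cell death triggered by IL-1 beta plus TNF-alpha plus IFN-gamma mixture; protective hits raise ATP signal compared with cytokine alone wells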

T2 sequence (P49327 whole entry, the tested form may be a part): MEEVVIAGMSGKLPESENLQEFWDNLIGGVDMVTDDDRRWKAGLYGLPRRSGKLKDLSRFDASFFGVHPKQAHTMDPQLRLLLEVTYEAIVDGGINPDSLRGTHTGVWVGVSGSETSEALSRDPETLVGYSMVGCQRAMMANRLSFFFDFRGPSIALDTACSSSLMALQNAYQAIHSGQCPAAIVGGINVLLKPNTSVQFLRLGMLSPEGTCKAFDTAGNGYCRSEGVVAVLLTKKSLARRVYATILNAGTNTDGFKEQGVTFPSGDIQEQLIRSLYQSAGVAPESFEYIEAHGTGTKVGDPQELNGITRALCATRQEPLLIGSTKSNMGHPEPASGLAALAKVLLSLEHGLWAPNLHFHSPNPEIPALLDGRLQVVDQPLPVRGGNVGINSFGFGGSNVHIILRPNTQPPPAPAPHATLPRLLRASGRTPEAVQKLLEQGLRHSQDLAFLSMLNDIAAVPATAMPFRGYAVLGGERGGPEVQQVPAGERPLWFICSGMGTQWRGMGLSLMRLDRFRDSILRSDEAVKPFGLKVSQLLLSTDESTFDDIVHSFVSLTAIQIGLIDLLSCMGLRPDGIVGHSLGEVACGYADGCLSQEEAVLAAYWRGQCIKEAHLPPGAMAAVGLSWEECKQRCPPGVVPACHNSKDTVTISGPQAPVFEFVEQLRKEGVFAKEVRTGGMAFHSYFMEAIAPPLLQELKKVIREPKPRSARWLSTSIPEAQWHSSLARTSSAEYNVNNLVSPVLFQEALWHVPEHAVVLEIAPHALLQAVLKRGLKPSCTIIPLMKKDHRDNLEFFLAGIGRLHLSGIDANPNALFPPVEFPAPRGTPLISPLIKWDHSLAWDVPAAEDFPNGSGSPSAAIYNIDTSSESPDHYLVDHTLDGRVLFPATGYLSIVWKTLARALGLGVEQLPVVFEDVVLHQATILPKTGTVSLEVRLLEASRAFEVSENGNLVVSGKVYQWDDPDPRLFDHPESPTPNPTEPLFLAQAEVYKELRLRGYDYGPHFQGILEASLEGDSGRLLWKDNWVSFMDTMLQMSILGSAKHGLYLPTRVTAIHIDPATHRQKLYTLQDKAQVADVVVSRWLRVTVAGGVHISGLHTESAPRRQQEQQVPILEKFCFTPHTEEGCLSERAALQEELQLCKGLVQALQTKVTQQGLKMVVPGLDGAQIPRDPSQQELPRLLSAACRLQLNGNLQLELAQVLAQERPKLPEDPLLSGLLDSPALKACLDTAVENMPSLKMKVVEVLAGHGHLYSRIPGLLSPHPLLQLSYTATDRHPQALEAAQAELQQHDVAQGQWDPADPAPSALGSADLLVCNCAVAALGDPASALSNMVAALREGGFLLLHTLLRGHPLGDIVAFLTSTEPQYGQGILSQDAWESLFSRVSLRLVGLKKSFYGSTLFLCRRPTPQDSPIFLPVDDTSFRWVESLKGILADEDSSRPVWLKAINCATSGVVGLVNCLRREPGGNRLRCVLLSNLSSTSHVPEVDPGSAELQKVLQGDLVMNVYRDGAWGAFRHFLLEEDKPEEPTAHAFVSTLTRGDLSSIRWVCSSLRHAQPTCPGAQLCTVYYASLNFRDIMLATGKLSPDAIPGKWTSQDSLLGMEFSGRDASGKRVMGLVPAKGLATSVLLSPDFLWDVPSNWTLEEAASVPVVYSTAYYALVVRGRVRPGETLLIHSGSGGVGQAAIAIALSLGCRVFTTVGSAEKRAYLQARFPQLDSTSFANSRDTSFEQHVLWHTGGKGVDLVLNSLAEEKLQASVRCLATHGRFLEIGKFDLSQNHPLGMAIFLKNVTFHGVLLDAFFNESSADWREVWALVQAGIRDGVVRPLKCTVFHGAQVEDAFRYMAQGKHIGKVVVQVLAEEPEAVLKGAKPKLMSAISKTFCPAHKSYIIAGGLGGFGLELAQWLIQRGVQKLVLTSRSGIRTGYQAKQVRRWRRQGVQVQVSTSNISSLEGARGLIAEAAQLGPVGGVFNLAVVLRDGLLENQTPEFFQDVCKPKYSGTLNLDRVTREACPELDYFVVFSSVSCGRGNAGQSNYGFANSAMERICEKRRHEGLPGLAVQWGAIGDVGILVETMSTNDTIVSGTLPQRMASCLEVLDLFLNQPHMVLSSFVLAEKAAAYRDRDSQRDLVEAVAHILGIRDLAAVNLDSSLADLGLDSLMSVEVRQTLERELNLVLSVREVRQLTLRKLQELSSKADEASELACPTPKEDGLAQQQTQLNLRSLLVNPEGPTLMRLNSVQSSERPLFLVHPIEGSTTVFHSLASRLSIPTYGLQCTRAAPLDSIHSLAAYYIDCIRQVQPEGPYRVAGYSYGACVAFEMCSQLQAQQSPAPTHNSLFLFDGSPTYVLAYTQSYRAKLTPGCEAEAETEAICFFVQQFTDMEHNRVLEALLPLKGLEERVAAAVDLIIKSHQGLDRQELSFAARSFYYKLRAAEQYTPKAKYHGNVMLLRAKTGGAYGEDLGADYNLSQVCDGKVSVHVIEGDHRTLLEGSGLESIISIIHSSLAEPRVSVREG
Chain of 26S proteasome non-ATPase regulatory subunit 14 (O00487 whole entry): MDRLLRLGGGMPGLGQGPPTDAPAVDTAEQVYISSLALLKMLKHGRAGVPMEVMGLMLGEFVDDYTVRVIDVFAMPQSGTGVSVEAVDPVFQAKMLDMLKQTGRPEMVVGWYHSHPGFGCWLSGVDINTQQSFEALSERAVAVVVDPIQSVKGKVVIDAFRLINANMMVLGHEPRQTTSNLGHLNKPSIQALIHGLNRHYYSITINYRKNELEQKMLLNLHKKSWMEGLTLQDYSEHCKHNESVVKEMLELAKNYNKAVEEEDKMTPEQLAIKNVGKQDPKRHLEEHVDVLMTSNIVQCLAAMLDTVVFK
Chain of 72 kDa type IV collagenase (P08253 whole entry): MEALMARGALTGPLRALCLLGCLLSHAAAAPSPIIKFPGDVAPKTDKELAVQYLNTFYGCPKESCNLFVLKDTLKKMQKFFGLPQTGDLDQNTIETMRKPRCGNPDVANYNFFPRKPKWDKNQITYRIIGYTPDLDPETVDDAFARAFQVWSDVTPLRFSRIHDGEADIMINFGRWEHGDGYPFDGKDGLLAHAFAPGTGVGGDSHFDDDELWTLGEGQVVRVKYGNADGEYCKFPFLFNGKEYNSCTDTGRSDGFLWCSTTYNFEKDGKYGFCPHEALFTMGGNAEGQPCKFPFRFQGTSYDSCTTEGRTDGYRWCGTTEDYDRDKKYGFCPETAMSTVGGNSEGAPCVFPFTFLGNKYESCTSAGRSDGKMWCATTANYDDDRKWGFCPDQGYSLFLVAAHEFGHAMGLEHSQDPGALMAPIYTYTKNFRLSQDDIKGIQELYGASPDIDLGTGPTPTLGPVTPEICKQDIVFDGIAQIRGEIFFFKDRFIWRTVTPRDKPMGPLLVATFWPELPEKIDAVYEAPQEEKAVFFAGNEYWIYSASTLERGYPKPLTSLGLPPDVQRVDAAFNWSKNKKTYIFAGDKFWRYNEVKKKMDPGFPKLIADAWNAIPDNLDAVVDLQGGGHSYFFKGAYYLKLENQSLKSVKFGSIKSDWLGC
Chain of Paired box protein Pax-8 (Q06710 whole entry): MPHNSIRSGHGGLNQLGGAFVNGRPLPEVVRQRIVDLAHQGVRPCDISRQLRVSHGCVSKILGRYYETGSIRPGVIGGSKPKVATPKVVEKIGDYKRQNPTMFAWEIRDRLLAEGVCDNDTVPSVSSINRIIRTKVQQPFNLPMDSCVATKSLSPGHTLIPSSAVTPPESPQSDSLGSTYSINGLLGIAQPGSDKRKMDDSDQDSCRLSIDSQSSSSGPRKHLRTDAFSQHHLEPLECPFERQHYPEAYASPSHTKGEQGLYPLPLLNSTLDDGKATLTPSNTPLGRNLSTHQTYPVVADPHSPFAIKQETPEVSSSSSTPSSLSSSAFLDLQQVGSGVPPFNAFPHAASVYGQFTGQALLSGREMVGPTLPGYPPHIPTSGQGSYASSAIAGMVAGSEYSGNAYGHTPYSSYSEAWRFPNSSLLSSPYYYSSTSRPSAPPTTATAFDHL
Chain of Luciferin 4-monooxygenase (P08659 whole entry): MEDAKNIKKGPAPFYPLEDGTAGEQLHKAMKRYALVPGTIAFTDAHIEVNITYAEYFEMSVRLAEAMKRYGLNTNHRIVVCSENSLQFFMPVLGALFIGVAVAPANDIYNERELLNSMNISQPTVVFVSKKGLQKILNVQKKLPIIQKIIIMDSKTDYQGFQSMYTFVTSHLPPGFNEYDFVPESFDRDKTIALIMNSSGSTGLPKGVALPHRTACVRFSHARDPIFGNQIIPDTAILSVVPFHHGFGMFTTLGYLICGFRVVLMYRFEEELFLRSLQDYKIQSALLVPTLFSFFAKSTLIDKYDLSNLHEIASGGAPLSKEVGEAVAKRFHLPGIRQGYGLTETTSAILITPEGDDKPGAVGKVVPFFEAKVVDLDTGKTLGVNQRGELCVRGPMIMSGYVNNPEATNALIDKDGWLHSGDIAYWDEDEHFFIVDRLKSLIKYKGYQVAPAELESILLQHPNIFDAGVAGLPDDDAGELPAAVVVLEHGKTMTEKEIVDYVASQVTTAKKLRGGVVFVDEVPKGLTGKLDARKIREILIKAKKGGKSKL

**Q.** For `Oc1c(C2=CC(C(F)(F)F)=NCCN2)ccc2ccccc12`, which EC50 [1] is on record?
**A.** Its EC50 is 0.364 µM (active).

**Q.** And the EC50 [2]?
**A.** Its EC50 is < 0.1 µM (inconclusive).

**Q.** And the EC50 (H4)?
**A.** The EC50 was < 0.1 µM (active).

**Q.** What about the EC50 [3] of the same compound?
**A.** Its EC50 is 0.345 µM (active).

**Q.** What about the EC50 [4] of the same compound?
**A.** The EC50 was 0.337 µM (active).

**Q.** Which AC50 [5] does the source give for `CC(=O)NC1=C(N2CC2C)C(=O)C(NC(C)=O)=C(N2CC2C)C1=O` (stereo not given) here?
**A.** Its AC50 is 10.2 µM (active).

**Q.** Which results are given for `Cc1nc2c(OCc3ccc(Cl)cc3Cl)cccn2c1N(C)CC1CC1`?
**A.** AC50 [6]: 10 µM (active); AC50 [7]: 35.3 µM (active); AC50 [8]: 19.9 µM (active); IC50 (Fatty acid synthase [9]): 12.7 µM (active); IC50 (Fatty acid synthase [10]): 12.9 µM (active)

**Q.** For `COc1ccc(Cc2c(-c3ccc(C)cc3)nc3ccc(Cl)cn23)c(C)c1`, which IC50 [11] is on record?
**A.** The IC50 was 27.1 µM (active).

**Q.** And the IC50 [12]?
**A.** Its IC50 is 92.4 µM (active).

**Q.** What about the IC50 (Prothrombin) of the same compound?
**A.** Its IC50 is 22.2 µM (active).

**Q.** With `O=C(N/N=C/C(Cl)=C/c1ccccc1)c1ccc2c(c1)OCO2` as the compound, how does the IC50 [13] read?
**A.** The IC50 was 52.9 µM (inactive).

**Q.** For `COc1cccc2cc(C(=O)Nc3ccc(F)cc3)/c(=N/c3ccc(C(=O)O)cc3)oc12`, which IC50 [11] is on record?
**A.** The IC50 was 48.2 µM (active).

**Q.** And the IC50 [12]?
**A.** Its IC50 is > 100 µM (inactive).

**Q.** And the IC50 (Prothrombin)?
**A.** Its IC50 is 21.7 µM (active).

**Q.** Which IC50 [13] does the source give for `O=C(N/N=C/C(Br)=C/c1ccccc1)c1ccc([N+](=O)[O-])cc1` here?
**A.** The IC50 was 10.4 µM (active).

**Q.** For `CC(C)COc1ccc(C(=O)N/C(=C\c2cccc([N+](=O)[O-])c2)C(=O)O)cc1`, which IC50 (Fatty acid synthase [9]) is on record?
**A.** Its IC50 is 8.63 µM (active).

**Q.** What about the IC50 (Fatty acid synthase [10]) of the same compound?
**A.** Its IC50 is 9.1 µM (active).

**Q.** For `O=C(Nc1cccc(F)c1)N1CCCCN2[C@@H](CO)[C@@H](c3ccc(C#Cc4ccccc4)cc3)[C@@H]2C1`, which AC50 (Paired box protein Pax-8) is on record?
**A.** Its AC50 is 10.1 µM (active).

**Q.** And the AC50 [14]?
**A.** Its AC50 is 5.97 µM (active).

**Q.** And the AC50 [15]?
**A.** Its AC50 is 13.4 µM (active).

**Q.** What about the AC50 [16] of the same compound?
**A.** The AC50 was 21.4 µM (active).

**Q.** Which EC50 [17] does the source give for `COc1ccc(C(=O)/N=c2\nc3ccccn3s2)cc1` here?
**A.** Its EC50 is 1.07 µM (active).

**Q.** And the EC50 [18]?
**A.** The EC50 was 5.24 µM (active).

**Q.** What about the AC50 (HEK293) of the same compound?
**A.** Its AC50 is 0.768 µM (active).

**Q.** For `C/C(=N\Nc1nc(N2CCOCC2)nc(N2CCOCC2)n1)c1ccc([N+](=O)[O-])cc1`, which IC50 (Fatty acid synthase [9]) is on record?
**A.** The IC50 was 14.5 µM (active).

**Q.** And the IC50 (Fatty acid synthase [10])?
**A.** Its IC50 is 17.9 µM (active).

**Q.** For `Cc1cc(Nc2cccc(F)c2)nc(NCc2ccccc2)n1`, which EC50 [19] is on record?
**A.** Its EC50 is 11.1 µM (active).

**Q.** What about the EC50 [20] of the same compound?
**A.** The EC50 was 10.4 µM (active).

**Q.** What about the AC50 (INS1) of the same compound?
**A.** The AC50 was 3.9 µM (active).

**Q.** For `COc1ccc(C(=O)C[n+]2ccc3c(c2)nc(-c2ccc(OC)cc2OC)n3C)cc1`, which EC50 [19] is on record?
**A.** The EC50 was 31.2 µM (active).

**Q.** What about the EC50 [20] of the same compound?
**A.** The EC50 was 22 µM (active).
